{"source": "patent US11046716B2", "about": "“Beta-lactamase inhibitors” (priority 2015, dated 2021)", "key": {"SHV-5": {"biological_target": "T1, SHV-5 (Klebsiella pneumoniae, UniProt P0A3M1)", "T1 construct": "made in house; host or cells: E. coli BL21(DE3)", "T1 sequence (P0A3M1 22-286)": "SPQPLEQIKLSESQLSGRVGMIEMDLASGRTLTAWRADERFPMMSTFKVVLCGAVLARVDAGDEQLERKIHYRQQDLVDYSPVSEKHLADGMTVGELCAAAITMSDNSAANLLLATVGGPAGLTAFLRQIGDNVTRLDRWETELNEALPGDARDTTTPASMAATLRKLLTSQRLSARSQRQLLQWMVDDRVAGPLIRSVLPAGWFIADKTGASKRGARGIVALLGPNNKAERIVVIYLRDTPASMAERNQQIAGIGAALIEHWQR", "test": "β-lactamase enzyme inhibition assay, SHV-5 (cefotaxime substrate)", "assay_type": "biochemical", "how_it_was_run": "(§1)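 IC50 is the inhibitor level cutting initial substrate hydrolysis rate by 50% relative to no-inhibitor controls, after 15 min enzyme–inhibitor preincubation at 37 °C. KPC-2 read with imipenem at 300 nm, SHV-5 with cefotaxime at 260 nm; enzymes were untagged, E. coli-expressed, chromatographically purified.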"}, "KPC-2": {"biological_target": "T2, KPC-2 (Klebsiella pneumoniae, UniProt Q9F663)", "T2 construct": "made in house; host or cells: E. coli BL21(DE3)", "T2 sequence (Q9F663 25-293, looked up)": "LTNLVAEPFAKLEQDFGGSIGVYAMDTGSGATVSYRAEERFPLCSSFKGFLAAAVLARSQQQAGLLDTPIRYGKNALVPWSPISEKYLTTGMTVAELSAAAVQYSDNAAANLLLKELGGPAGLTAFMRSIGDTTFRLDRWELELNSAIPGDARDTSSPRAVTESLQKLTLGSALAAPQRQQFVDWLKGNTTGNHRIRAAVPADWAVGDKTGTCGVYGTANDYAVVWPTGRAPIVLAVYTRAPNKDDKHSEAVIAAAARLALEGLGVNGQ", "test": "β-lactamase enzyme inhibition assay, KPC-2 (imipenem substrate)", "assay_type": "biochemical", "how_it_was_run": "as §1"}, "VIM-2": {"biological_target": "T3, VIM-2 (Escherichia coli, UniProt Q5U7L7)", "T3 construct": "made in house; host or cells: E. coli BL21(DE3)", "test": "β-lactamase enzyme inhibition assay, VIM-2 (nitrocefin substrate)", "assay_type": "biochemical", "how_it_was_run": "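Enzyme + inhibitor, 37 °C, 15 min; nitrocefin 100 μM final; A486 read for 10 min. % inhibition vs no-inhibitor wells per concentration; IC50 = concentration halving initial hydrolysis rate.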"}, "AmpC": {"biological_target": "T4, AmpC (Enterobacter cloacae, UniProt P05364)", "T4 construct": "made in house; host or cells: E. coli BL21(DE3)", "T4 sequence (P05364 21-381)": "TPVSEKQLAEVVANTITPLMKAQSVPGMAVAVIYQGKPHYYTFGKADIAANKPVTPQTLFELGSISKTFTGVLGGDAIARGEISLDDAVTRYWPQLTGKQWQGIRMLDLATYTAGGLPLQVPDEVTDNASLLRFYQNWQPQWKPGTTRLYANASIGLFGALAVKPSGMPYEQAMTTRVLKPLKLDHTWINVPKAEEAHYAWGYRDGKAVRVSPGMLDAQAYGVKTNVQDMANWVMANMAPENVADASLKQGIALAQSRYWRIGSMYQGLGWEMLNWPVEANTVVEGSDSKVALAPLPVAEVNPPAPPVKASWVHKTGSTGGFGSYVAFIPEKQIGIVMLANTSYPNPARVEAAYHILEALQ", "test": "β-lactamase enzyme inhibition assay, p99 AmpC (nitrocefin substrate)", "assay_type": "biochemical", "how_it_was_run": "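IC50 is the inhibitor level cutting initial substrate hydrolysis rate by 50% relative to no-inhibitor controls, after 15 min enzyme–inhibitor preincubation at 37 °C. enzymes were untagged, E. coli-expressed, chromatographically purified.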"}, "OXA-48": {"biological_target": "OXA-48 (UniProt Q6XEC0)", "test": "β-lactamase enzyme inhibition assay, Class D oxacillinase", "assay_type": "biochemical", "details": "read-out: OXA-48"}, "[1]": {"tested_on": "E. coli expressing the Class A Extended Spectrum Beta-Lactamase (ESBL) CTX-M-15", "test": "Broth microdilution MIC assay with ceftazidime, E. coli CTX-M-15", "assay_type": "cell-based", "details": "Fixed CAZ (ceftazidime) 4 μg/mL; E. coli ESBL4 CTX-M-15", "how_it_was_run": "(§2)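 CAMHB; cpd 2-fold serial dilution, 16–0.125 μg/mL final; β-lactam static 4 μg/ml; CLSI inoculation; 16–20 h, 37° C; MIC read by eye.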"}, "[2]": {"tested_on": "E. cloacae expressing the Class C P99", "test": "Broth microdilution MIC assay with ceftazidime, E. cloacae P99", "assay_type": "cell-based", "details": "Fixed CAZ (ceftazidime) 4 μg/mL; E. cl. 144200 p99 AmpC", "how_it_was_run": "as §2"}, "[3]": {"tested_on": "K. pneumoniae expressing the Class A carbapenemase KPC-2", "test": "Broth microdilution MIC assay with meropenem, K. pneumoniae KPC-2", "assay_type": "cell-based", "details": "Fixed Mero (meropenem) 4 μg/mL; K. p. 156319 KPC-3", "how_it_was_run": "as §2"}, "[4]": {"tested_on": "P. aeruginosa expressing the Class B carbapenemase VIM-2", "test": "Broth microdilution MIC assay with meropenem, P. aeruginosa VIM-2", "assay_type": "cell-based", "details": "Fixed Mero (meropenem) 4 μg/mL; P. aerug. 2775 VIM-2", "how_it_was_run": "as §2"}, "[5]": {"tested_on": "K. pneumoniae expressing the class A carbapenemase KPC-2 and the class B carbapenemase VIM-4", "test": "Broth microdilution MIC assay with meropenem, K. pneumoniae KPC-2 and VIM-4", "assay_type": "cell-based", "details": "Fixed Mero (meropenem) 4 μg/mL; K. p. A-1797 KPC-2 VIM-4", "how_it_was_run": "as §2"}, "[6]": {"tested_on": "K. pneumoniae producing the Class D carbapenemase OXA-48", "test": "Broth microdilution MIC assay with meropenem, K. pneumoniae OXA-48", "assay_type": "cell-based", "details": "Fixed Mero (meropenem) 4 μg/mL; K. p. 11978 OXA-48", "how_it_was_run": "as §2"}}, "note": "Where two headings read alike, the source gives them in different places.", "data": [{"smiles": "NCCn1ncnc1CC(=O)N[C@H]1Cc2cccc(C(=O)O)c2OB1O", "note": "[Example 119, (R)-3-(2-(1-(2-aminoethyl)-1H-1,2,4-triazol-5-yl)acetamido)-2-hydroxy-3,4-dihydro-2H-benzo[e][1,2]oxaborinine-8-carboxylic acid]", "values": [{"measurement": "IC50", "setting": "SHV-5", "result": "< 0.1", "unit": "µM"}, {"measurement": "IC50", "setting": "KPC-2; Class A, imipenem substrate, 300 nm, read-out: KPC-2", "result": "0.1 to 1", "unit": "µM"}, {"measurement": "IC50", "setting": "VIM-2; Class B, nitrocefin substrate, 486 nm, read-out: VIM-2", "result": "0.1 to 1", "unit": "µM"}, {"measurement": "IC50", "setting": "AmpC", "result": "< 0.1", "unit": "µM"}, {"measurement": "IC50", "setting": "OXA-48", "result": "0.1 to 1", "unit": "µM"}, {"measurement": "MIC (μg/mL) of Exemplary Compounds in presence of fixed β-lactams: E. coli ESBL4 CTX-M-15", "setting": "[1]", "result": "C (C represents an MIC of <1 μg/mL)"}, {"measurement": "MIC (μg/mL) of Exemplary Compounds in presence of fixed β-lactams: E. cl. 144200 p99 AmpC", "setting": "[2]", "result": "C (C represents an MIC of <1 μg/mL)"}, {"measurement": "MIC (μg/mL) of Exemplary Compounds in presence of fixed β-lactams: K. p. 156319 KPC-3", "setting": "[3]", "result": "C (C represents an MIC of <1 μg/mL)"}, {"measurement": "MIC (μg/mL) of Exemplary Compounds in presence of fixed β-lactams: P. aerug. 2775 VIM-2", "setting": "[4]", "result": "C (C represents an MIC of <1 μg/mL)"}, {"measurement": "MIC (μg/mL) of Exemplary Compounds in presence of fixed β-lactams: K. p. A-1797 KPC-2 VIM-4", "setting": "[5]", "result": "B (B represents an MIC between 1 and 16 μg/mL inclusive)"}, {"measurement": "MIC (μg/mL) of Exemplary Compounds in presence of fixed β-lactams: K. p. 11978 OXA-48", "setting": "[6]", "result": "B (B represents an MIC between 1 and 16 μg/mL inclusive)"}]}, {"smiles": "NCCc1cnnn1CC(=O)N[C@H]1Cc2cccc(C(=O)O)c2OB1O", "note": "[Example 121, (R)-3-(2-(5-(2-aminoethyl)-1H-1,2,3-triazol-1-yl)acetamido)-2-hydroxy-3,4-dihydro-2H-benzo[e][1,2]oxaborinine-8-carboxylic acid]", "values": [{"measurement": "IC50", "setting": "SHV-5", "result": "< 0.1", "unit": "µM"}, {"measurement": "IC50", "setting": "KPC-2", "result": "< 0.1", "unit": "µM"}, {"measurement": "IC50", "setting": "VIM-2", "result": "0.1 to 1", "unit": "µM"}, {"measurement": "IC50", "setting": "AmpC", "result": "< 0.1", "unit": "µM"}, {"measurement": "IC50", "setting": "OXA-48", "result": "< 0.1", "unit": "µM"}, {"measurement": "MIC (μg/mL) of Exemplary Compounds in presence of fixed β-lactams: E. coli ESBL4 CTX-M-15", "setting": "[1]", "result": "C (C represents an MIC of <1 μg/mL)"}, {"measurement": "MIC (μg/mL) of Exemplary Compounds in presence of fixed β-lactams: E. cl. 144200 p99 AmpC", "setting": "[2]", "result": "C (C represents an MIC of <1 μg/mL)"}, {"measurement": "MIC (μg/mL) of Exemplary Compounds in presence of fixed β-lactams: K. p. 156319 KPC-3", "setting": "[3]", "result": "C (C represents an MIC of <1 μg/mL)"}, {"measurement": "MIC (μg/mL) of Exemplary Compounds in presence of fixed β-lactams: P. aerug. 2775 VIM-2", "setting": "[4]", "result": "C (C represents an MIC of <1 μg/mL)"}, {"measurement": "MIC (μg/mL) of Exemplary Compounds in presence of fixed β-lactams: K. p. A-1797 KPC-2 VIM-4", "setting": "[5]", "result": "B (B represents an MIC between 1 and 16 μg/mL inclusive)"}, {"measurement": "MIC (μg/mL) of Exemplary Compounds in presence of fixed β-lactams: K. p. 11978 OXA-48", "setting": "[6]", "result": "B (B represents an MIC between 1 and 16 μg/mL inclusive)"}]}, {"smiles": "NCCn1cc(Cn2nnnc2CC(=O)N[C@H]2Cc3cccc(C(=O)O)c3OB2O)nn1", "note": "[Example 123, (R)-3-(2-(1-((1-(2-aminoethyl)-1H-1,2,3-triazol-4-yl)methyl)-1H-tetrazol-5-yl)acetamido)-2-hydroxy-3,4-dihydro-2H-benzo[e][1,2]oxaborinine-8-carboxylic acid]", "values": [{"measurement": "IC50", "setting": "SHV-5", "result": "< 0.1", "unit": "µM"}, {"measurement": "IC50", "setting": "KPC-2", "result": "0.1 to 1", "unit": "µM"}, {"measurement": "IC50", "setting": "VIM-2", "result": "1 to 10", "unit": "µM"}, {"measurement": "IC50", "setting": "AmpC", "result": "< 0.1", "unit": "µM"}, {"measurement": "IC50", "setting": "OXA-48", "result": "0.1 to 1", "unit": "µM"}, {"measurement": "MIC (μg/mL) of Exemplary Compounds in presence of fixed β-lactams: E. coli ESBL4 CTX-M-15", "setting": "[1]", "result": "C (C represents an MIC of <1 μg/mL)"}, {"measurement": "MIC (μg/mL) of Exemplary Compounds in presence of fixed β-lactams: E. cl. 144200 p99 AmpC", "setting": "[2]", "result": "C (C represents an MIC of <1 μg/mL)"}, {"measurement": "MIC (μg/mL) of Exemplary Compounds in presence of fixed β-lactams: K. p. 156319 KPC-3", "setting": "[3]", "result": "C (C represents an MIC of <1 μg/mL)"}, {"measurement": "MIC (μg/mL) of Exemplary Compounds in presence of fixed β-lactams: P. aerug. 2775 VIM-2", "setting": "[4]", "result": "A (A represents an MIC>16 μg/mL)"}, {"measurement": "MIC (μg/mL) of Exemplary Compounds in presence of fixed β-lactams: K. p. A-1797 KPC-2 VIM-4", "setting": "[5]", "result": "B (B represents an MIC between 1 and 16 μg/mL inclusive)"}, {"measurement": "MIC (μg/mL) of Exemplary Compounds in presence of fixed β-lactams: K. p. 11978 OXA-48", "setting": "[6]", "result": "B (B represents an MIC between 1 and 16 μg/mL inclusive)"}]}]}
